In patent US10294202B2, “Pyrrolidinones as herbicides” (FMC Corporation, priority 2013, dated 2019):

Key:
arrowleaf sida = experiment: Test E preemergence herbicide test; assay type: in vivo, Sida rhombifolia; parameters: key: 0 = no effect, 100 = complete control
Text: (§1) Seeds of plant species selected from corn (Zea mays), soybean (Glycine max), velvetleaf (Abutilon theophrasti), lambsquarters (Chenopodium album), wild poinsettia (Euphorbia heterophylla), pigweed, palmer (palmer pigweed, Amaranthus palmeri), waterhemp (common waterhemp, Amaranthus rudis), surinam grass (Brachiaria decumbens), crabgrass, large (large crabgrass, Digitaria sanguinalis), crabgrass, Brazil (Brazilian crabgrass, Digitaria horizontalis), panicum, fall (fall panicum, Panicum dichotomiflorum), foxtail, giant (giant foxtail, Setaria faberii), foxtail, green (green foxtail, Setaria viridis), goosegrass (Eleusine indica), johnsongrass (Sorghum halepense), ragweed (common ragweed, Ambrosia elatior), barnyardgrass (Echinochloa crus-galli), sandbur (southern sandbur, Cenchrus echinatus), arrowleaf […] rhombifolia), ryegrass, Italian (Italian ryegrass, Lolium multiflorum), dayflower, VA (Virginia dayflower, Commelina virginica), field bindweed (Convolvulus arvensis), morningglory (Ipomoea coccinea), nightshade (eastern black nightshade, Solanum ptycanthum), kochia (Kochia scoparia), nutsedge, yellow (yellow nutsedge, Cyperus esculentus), cocklebur (common cocklebur, Xanthium strumarium), smartweed (ladysthumb smartweed, Polygonum Persicaria) and beggarticks (hairy beggarticks, Bidens pilosa), were planted into a silt loam soil and treated preemergence with test chemicals formulated in a non-phytotoxic solvent mixture which included a surfactant. Treated plants and controls were maintained in a greenhouse for 21 days, after which time all species were compared to controls and visually evaluated. Plant response ratings, summarized in Table E, are based on a scale of 0 to 100 where 0 is no effect and 100 is complete control. A dash (-) response means no test result.

pigweed = experiment: Test D pre-/postemergence herbicide test; assay type: in vivo, Amaranthus retroflexus; details: for Plant response rating: Postemergence, Pigweed, scale 0 to 100; for Plant response rating, Pigweed: Preemergence, scale 0 to 100 (0 no effect, 100 complete control)
Method in brief: (§2)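 Compound applied in non-phytotoxic solvent with surfactant, either preemergence (silt loam soil) or postemergence (peat moss/vermiculite medium, 2–18 cm plants). Evaluated visually after 7 to 21 days; 0 = no effect, 100 = complete control.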

buckwheat, wild = experiment: Test D pre-/postemergence herbicide test; assay type: in vivo, Polygonum convolvulus; details: for Plant response rating: Buckwheat, Wild, scale 0 to 100; for Plant response rating, Buckwheat, Wild: scale 0 to 100 (0 no effect, 100 complete control)
Method in brief: as §2

morningglory = experiment: Test E preemergence herbicide test; assay type: in vivo, Ipomoea coccinea; parameters: key: 0 = no effect, 100 = complete control
Text: as §1

chickweed = experiment: Test D pre-/postemergence herbicide test; assay type: in vivo, Stellaria media; details: for Plant response rating: Chickweed, scale 0 to 100; for Plant response rating, Chickweed: scale 0 to 100 (0 no effect, 100 complete control)
Method in brief: as §2

barnyardgrass = experiment: Test F flood (paddy) test; assay type: in vivo, Echinochloa crus-galli; details: 21 d, scale 0-100
Method in brief: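 Visual injury ratings (0 no effect to 100 complete control) were taken 21 d after treatment against untreated controls. Compounds went directly into paddy water held 3 cm above soil, applied at the 2.0–2.5-leaf stage in sterilized Tama silt loam under a 30/27 °C, 16-h greenhouse regime.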

Row | SMILES | Plant response rating, Arrowleaf Sida (arrowleaf sida; 31 g ai/ha) | Plant response rating, Arrowleaf Sida (arrowleaf sida; 62 g ai/ha) | Plant response rating, Arrowleaf Sida (arrowleaf sida; 125 g ai/ha) | Plant response rating, Arrowleaf Sida (arrowleaf sida; 250 g ai/ha) | Plant response rating, Pigweed (pigweed; 62 g ai/ha) | Plant response rating, Pigweed (pigweed; 125 g ai/ha) | Plant response rating, Pigweed (pigweed; 31 g ai/ha) | Plant response rating, Pigweed (pigweed; 250 g ai/ha) | Plant response rating, Buckwheat, Wild (buckwheat, wild; Preemergence, 62 g ai/ha) | Plant response rating, Buckwheat, Wild (buckwheat, wild; Preemergence, 31 g ai/ha) | Plant response rating (buckwheat, wild; Preemergence, 250 g ai/ha) | Plant response rating, Morningglory (morningglory; 31 g ai/ha) | Plant response rating, Morningglory (morningglory; 62 g ai/ha) | Plant response rating, Morningglory (morningglory; 125 g ai/ha) | Plant response rating, Morningglory (morningglory; 250 g ai/ha) | Plant response rating, Chickweed (chickweed; Preemergence, 62 g ai/ha) | Plant response rating, Chickweed (chickweed; Preemergence, 31 g ai/ha) | Plant response rating (chickweed; Preemergence, 250 g ai/ha) | Plant response rating, Buckwheat, Wild (buckwheat, wild; Preemergence, 125 g ai/ha) | Plant response rating, Barnyardgrass (barnyardgrass; 125 g ai/ha) | further results
1 | O=C1NCC(c2ccc(C(F)(F)F)cc2)C1C(=O)Nc1cccc(F)c1F (stereo not drawn) [Compound 80, N-(2,3-difluorophenyl)-2-oxo-4-[4-(trifluoromethyl)phenyl]-3-pyrrolidinecarboxamide] | 0 | 0 | 0 | 10 | 10 | 20 | 5 | 45 | 0 | 0 | 15 | 0 | 0 | 20 | 40 | 100 | 85 | 100 | – | – | Plant response rating, Arrowleaf Sida (arrowleaf sida; 16 g ai/ha): 0; Plant response rating (pigweed; 31 g ai/ha): 40; Plant response rating (pigweed; 62 g ai/ha): 70; Plant response rating (pigweed; 125 g ai/ha): 70; Plant response rating (pigweed; 250 g ai/ha): 75; Plant response rating (buckwheat, wild; Postemergence, 31 g ai/ha): 0; Plant response rating (buckwheat, wild; Postemergence, 62 g ai/ha): 10; Plant response rating (buckwheat, wild; Postemergence, 125 g ai/ha): 0; Plant response rating (buckwheat, wild; Postemergence, 250 g ai/ha): 0; Plant response rating (buckwheat, wild; Preemergence, 125 g ai/ha): 5; Plant response rating, Morningglory (morningglory; 16 g ai/ha): 0; Plant response rating (chickweed; Postemergence, 31 g ai/ha): 35; Plant response rating (chickweed; Postemergence, 62 g ai/ha): 45; Plant response rating (chickweed; Postemergence, 125 g ai/ha): 85; Plant response rating (chickweed; Postemergence, 250 g ai/ha): 85; Plant response rating (chickweed; Preemergence, 125 g ai/ha): 100
2 | O=C1NC[C@H](c2cccc(C(F)(F)F)c2)[C@H]1C(=O)Nc1ccccc1F [Compound 204, (3R,4S)—N-(2-fluorophenyl)-2-oxo-4-[3-(trifluoromethyl)phenyl]-3-pyrrolidinecarboxamide] | 0 | 0 | 0 | 0 | 5 | 35 | 0 | 35 | 25 | 20 | 25 | 0 | 0 | 20 | 30 | 100 | 100 | 100 | 25 | 100 | Plant response rating, Barnyardgrass (barnyardgrass; 250 g ai/ha): 100; Plant response rating, Barnyardgrass (barnyardgrass; 500 g ai/ha): 100; Plant response rating, Chickweed (chickweed; Preemergence, 125 g ai/ha): 100
3 | O=C1NC[C@H](c2cccc(C(F)(F)F)c2)[C@H]1C(=O)Nc1cccc(F)c1F [Compound 206] | 0 | 0 | 10 | 50 | 20 | 40 | 5 | 50 | 65 | 45 | 55 | 0 | 0 | 0 | 0 | 100 | 30 | 95 | 50 | 100 | Plant response rating, Barnyardgrass (barnyardgrass; 64 g ai/ha): 90; Plant response rating, Barnyardgrass (barnyardgrass; 250 g ai/ha): 100; Plant response rating, Barnyardgrass (barnyardgrass; 500 g ai/ha): 100; Plant response rating, Chickweed (chickweed; Preemergence, 125 g ai/ha): 70
